Laboratory results: patent US9487502B2, “Chemical compounds” (Syngenta Limited, priority 2013, dated 2016)

Experiments:
Format in all cases: in vivo
[1] = system: Alopecurus myosuroides; experiment: Post-emergence herbicidal activity, ALOMY; parameters: key: 5=total damage to plant; 0=no damage to plant; details: 1000 g/Ha, sprayed post-emergence (8 days cultivation), evaluated after 13 days, scale 0-5
Method: (§1) Seeds of a variety of test species were sown in standard soil in pots. After 8 days cultivation (post-emergence) under controlled conditions in a glasshouse (at 24/16° C., day/night; 14 hours light; 65% humidity), the plants were sprayed with an aqueous spray solution derived from the formulation of the technical active ingredient in acetone/water (50:50) solution containing 0.5% Tween 20 (polyoxyethelyene sorbitan monolaurate, CAS RN 9005-64-5). The test plants were then grown in a glasshouse under controlled conditions (at 24/16° C., day/night; 14 hours light; 65% humidity) and watered twice daily. After 13 days, the test was evaluated (5=total damage to plant; 0=no damage to plant).

[2] = system: Echinochloa crus-galli; experiment: Post-emergence herbicidal activity, ECHCG; parameters: key: 5=total damage to plant; 0=no damage to plant; details: 1000 g/Ha, sprayed post-emergence (8 days cultivation), evaluated after 13 days, scale 0-5
Method: as §1

[3] = system: Amaranthus retroflexus; experiment: Post-emergence herbicidal activity, AMARE; parameters: key: 5=total damage to plant; 0=no damage to plant; details: 1000 g/Ha, sprayed post-emergence (8 days cultivation), evaluated after 13 days, scale 0-5
Method: as §1

[4] = system: Setaria faberi; experiment: Pre-emergence herbicidal activity, SETFA; parameters: key: 5=total damage to plant; 0=no damage to plant; details: 1000 g/Ha, sprayed pre-emergence, evaluated after 13 days, scale 0-5
Method: as §1, with “After” for “After 8 days”, “for one day (pre-emergence)” for “(post-emergence)”

[5] = system: Amaranthus retroflexus; experiment: Pre-emergence herbicidal activity, AMARE; parameters: key: 5=total damage to plant; 0=no damage to plant; details: 1000 g/Ha, sprayed pre-emergence, evaluated after 13 days, scale 0-5
Method: as §1, with “After” for “After 8 days”, “for one day (pre-emergence)” for “(post-emergence)”

[6] = system: Zea mays; experiment: Post-emergence herbicidal activity, ZEAMX; parameters: key: 5=total damage to plant; 0=no damage to plant; details: 1000 g/Ha, sprayed post-emergence (8 days cultivation), evaluated after 13 days, scale 0-5
Method: as §1

[7] = system: Setaria faberi; experiment: Post-emergence herbicidal activity, SETFA; parameters: key: 5=total damage to plant; 0=no damage to plant; details: 1000 g/Ha, sprayed post-emergence (8 days cultivation), evaluated after 13 days, scale 0-5
Method: as §1

[8] = system: Abutilon theophrasti; experiment: Post-emergence herbicidal activity, ABUTH; parameters: key: 5=total damage to plant; 0=no damage to plant; details: 1000 g/Ha, sprayed post-emergence (8 days cultivation), evaluated after 13 days, scale 0-5
Method: as §1

[9] = system: Abutilon theophrasti; experiment: Pre-emergence herbicidal activity, ABUTH; parameters: key: 5=total damage to plant; 0=no damage to plant; details: 1000 g/Ha, sprayed pre-emergence, evaluated after 13 days, scale 0-5
Method: as §1, with “After” for “After 8 days”, “for one day (pre-emergence)” for “(post-emergence)”

[10] = system: Alopecurus myosuroides; experiment: Pre-emergence herbicidal activity, ALOMY; details: 1000 g/Ha, sprayed pre-emergence, evaluated after 13 days, scale 0-5
Method: as §1, with “After” for “After 8 days”, “for one day (pre-emergence)” for “(post-emergence)”

[11] = system: Zea mays; experiment: Pre-emergence herbicidal activity, ZEAMX; parameters: key: 5=total damage to plant; 0=no damage to plant; details: 1000 g/Ha, sprayed pre-emergence, evaluated after 13 days, scale 0-5
Method: as §1, with “After” for “After 8 days”, “for one day (pre-emergence)” for “(post-emergence)”

[12] = system: Echinochloa crus-galli; experiment: Pre-emergence herbicidal activity, ECHCG; parameters: key: 5=total damage to plant; 0=no damage to plant; details: 1000 g/Ha, sprayed pre-emergence, evaluated after 13 days, scale 0-5
Method: as §1, with “After” for “After 8 days”, “for one day (pre-emergence)” for “(post-emergence)”

| SMILES | ALOMY damage score, application post-emergence [1] | ECHCG damage score, application post-emergence [2] | AMARE damage score, application post-emergence [3] | SETFA damage score, application pre-emergence [4] | AMARE damage score, application pre-emergence [5] | ZEAMX damage score, application post-emergence [6] | SETFA damage score, application post-emergence [7] | ABUTH damage score, application post-emergence [8] | ABUTH damage score, application pre-emergence [9] | ALOMY damage score, application pre-emergence [10] | ZEAMX damage score, application pre-emergence [11] | ECHCG damage score, application pre-emergence [12] |
| --- | --- | --- | --- | --- | --- | --- | --- | --- | --- | --- | --- | --- |
| COC1C(O)N(c2cc(C(C)(C)C)ncn2)C(=O)N1C (stereo not shown) [Example A11] | 4 | 4 | 5 | 4 | 5 | 1 | 5 | 5 | 4 | 3 | 1 | 3 |
| CCC1C(O)N(c2cc(C(C)(C)C)ncn2)C(=O)N1C (stereo not shown) [Example A16] | 3 | 5 | 5 | 5 | 5 | 4 | 5 | 5 | 5 | 2 | 2 | 4 |
| CN1C(=O)N(c2cc(C(C)(C)C)ncn2)C(O)C1CC(F)(F)F (stereo not shown) [Example A34] | 3 | 0 | 2 | 2 | 5 | 2 | 3 | 5 | 4 | 1 | 0 | 1 |
| CC1NC(=O)N(c2cc(C(C)(C)C)ncn2)C1O (stereo not shown) [Example A32] | 3 | 2 | 2 | 1 | 2 | 1 | 2 | 5 | 3 | 1 | 0 | 1 |
| CCOC1C(O)N(c2cc(C(C)(C)C)ncn2)C(=O)N1C (stereo not shown) [Example A5, 1-(6-tert-butylpyrimidin-4-yl)-4-ethoxy-5-hydroxy-3-methyl-imidazolidin-2-one] | 5 | 5 | 5 | 5 | 5 | 4 | 5 | 5 | 5 | 4 | 2 | 5 |
| CCC1C(O)N(c2cc(C(C)(C)C)ncn2)C(=O)N1OC (stereo not shown) [Example A19] | 3 | 3 | 5 | 5 | 5 | 5 | 2 | 5 | 3 | 4 | 3 | 5 |
| COCC1NC(=O)N(c2cc(C(C)(C)C)ncn2)C1O (stereo not shown) [Example A30] | 4 | 3 | 5 | 4 | 5 | 1 | 4 | 5 | 5 | 4 | 1 | 4 |
| CC1C(OC(=O)Nc2ccc([N+](=O)[O-])cc2)N(c2cc(C(C)(C)C)ncn2)C(=O)N1C (stereo not shown) [Example A36] | 5 | 5 | 5 | 4 | 5 | 5 | 5 | 5 | 5 | 4 | 3 | 4 |
| CC1C(O)N(c2cc(C(C)(C)C#N)ncn2)C(=O)N1C (stereo not shown) [Example A24] | 4 | 5 | 5 | 5 | 5 | 5 | 5 | 5 | 5 | 4 | 2 | 5 |
| C=CC1C(O)N(c2cc(C(C)(C)C)ncn2)C(=O)N1C (stereo not shown) [Example A29] | 4 | 4 | 5 | 4 | 5 | 1 | 5 | 5 | 5 | 4 | 1 | 4 |
| CN1CC(O)N(c2cc(C(C)(C)CCl)ncn2)C1=O (stereo not shown) [Example A40] |  | 5 | 5 | 5 | 5 | 5 | 5 | 5 | 5 |  | 2 | 5 |
| CN1CC(O)N(c2cc(C(F)(F)Cl)ncn2)C1=O (stereo not shown) [Example A39] |  | 5 | 5 | 5 | 5 | 5 | 5 | 5 | 5 |  | 2 | 5 |
| CON1C(=O)N(c2cc(C(C)(C)C)ncn2)C(O)C1C (stereo not shown) [Example A6, 1-(6-tert-butylpyrimidin-4-yl)-5-hydroxy-3-methoxy-4-methyl-imidazolidin-2-one] | 5 | 5 | 5 | 5 | 5 | 5 | 5 | 5 |  | 4 |  | 5 |
| CCO[C@@H]1C(O)N(c2cc(C(C)(C)F)ncn2)C(=O)N1C (stereo partly shown) [Example A38] |  | 5 | 5 | 5 | 5 | 5 | 5 | 5 | 5 |  | 2 | 5 |
